Values after ≈ are worked out from the molar mass of the structure shown. Active and inactive are the calls of the source. The calls are words filed in the database; no cut-off is given here.
Columns and labels:
[1] = system: Mycobacterium tuberculosis; test: microbe, parasite or virus in culture; conditions: H37Rv, 168 h
[2] = system: Mycobacterium tuberculosis; test: Binding affinity to wild type Mycobacterium tuberculosis Pks13-TE N1640 expressed in Escherichia coli BL21(DE3) pLysS assessed as change in melting temperature at 1:5 compound to protein ratio by nanoDSF thermal stability analysis
[3] = system: Mycobacterium tuberculosis; test: Binding affinity to wild type Mycobacterium tuberculosis Pks13-TE N1640 expressed in Escherichia coli BL21(DE3) pLysS assessed as change in melting temperature at 1:10 compound to protein ratio by nanoDSF thermal stability analysis
[4] = system: Mycobacterium tuberculosis; type: functional, Vero; conditions: V4207, 168 h, time 7 day
[5] = Cytotoxicity against African green monkey Vero cells; type: toxicity, cell-based, Chlorocebus sabaeus
[6] = Metabolic stability in human liver microsomes assessed as half-life measured after 60 mins by LC-MS/MS analysis; type: ADME, Microsome
[7] = Metabolic stability in human liver microsomes assessed as microsomal intrinsic clearance measured after 60 mins by LC-MS/MS analysis; type: ADME, Microsome; conditions: read-out: CLH
[8] = Metabolic stability in human liver microsomes assessed as liver intrinsic clearance measured after 60 mins by LC-MS/MS analysis; type: ADME, Microsome; conditions: read-out: CLH
[9] = Metabolic stability in human liver microsomes assessed as compound remaining measured after 60 mins by LC-MS/MS analysis; type: ADME, Microsome; conditions: read-out: Stability
[10] = system: Mycobacterium tuberculosis; type: functional, organism-based; conditions: H37Rv, dose 100.0 mg/kg, route po, time 7.0 day
[11] = system: Mycobacterium tuberculosis; type: functional, organism-based; conditions: H37Rv, dose 100.0 mg/kg, route po, time 7.0 day; remark: listed apart in the source
[12] = Selectivity index, ratio of CC50 for African green monkey Vero cells to MIC90 for Mycobacterium tuberculosis H37Rv; type: toxicity; conditions: read-out: Selectivity Index

| Structure (SMILES) | MIC90 [1] | further results |
| --- | --- | --- |
| O=c1oc2cc(O)ccc2c2oc3ccc4c(c3c12)CN(C1CC1)CO4 | 0.125 mg/L (≈ 0.358 µM) |  |
| CC1(C)CCN(Cc2c(O)ccc3oc4c5ccc(O)cc5oc(=O)c4c23)CC1 | 0.25 mg/L (≈ 0.635 µM) |  |
| COc1ccc2c(c1)oc(=O)c1c2oc2ccc(O)c(CN3CCC(Br)CC3)c21 | > 64 mg/L |  |
| O=c1oc2cc(O)ccc2c2oc3ccc(O)c(CN4CCC(F)(F)CC4)c3c12 | 1 mg/L (≈ 2.49 µM) |  |
| O=c1oc2cc(O)ccc2c2oc3ccc(O)c(CN4CCC5(CC4)CC5)c3c12 | 0.25 mg/L (≈ 0.639 µM) |  |
| NNC(=O)c1ccncc1 [ISONIAZID] | 0.04 mg/L (≈ 0.292 µM) |  |
| CO[C@H]1/C=C/O[C@@]2(C)Oc3c(C)c(O)c4c(O)c(c(/C=N/N5CCN(C)CC5)c(O)c4c3C2=O)NC(=O)/C(C)=C\C=C\[C@H](C)[C@H](O)[C@@H](C)[C@@H](O)[C@@H](C)[C@H](OC(C)=O)[C@@H]1C [RIFAMPIN] | 0.125 mg/L (≈ 0.152 µM) |  |
| O=c1oc2cc(O)ccc2c2oc3ccc(O)c(CNCc4ccccc4)c3c12 | 1 mg/L (≈ 2.58 µM) |  |
| O=C(c1c(O)ccc2oc3c4ccc(O)cc4oc(=O)c3c12)N1CCCCC1 | > 64 mg/L |  |
| O=c1oc2cc(O)ccc2c2oc3ccc(O)c(CN4CCCC(F)(F)C4)c3c12 | > 64 mg/L |  |
| COC(=O)c1c(NC(=O)c2c(F)c(F)c(F)c(F)c2F)sc2c1CCCCC2 |  | MIC [1]: 1 µM (≈ 0.419 µg/mL) |
| CC(C)CCN1COc2ccc3oc4c5ccc(O)cc5oc(=O)c4c3c2C1 | 0.0625 mg/L (≈ 0.165 µM) |  |
| O=c1oc2cc(O)ccc2c2oc3ccc(O)c(CN4CCC(F)CC4)c3c12 | 0.0625 mg/L (≈ 0.163 µM) | ΔTm [2]: 8.8 °C; ΔTm [3]: 7.6 °C; MIC90 [4]: 0.125 mg/L (≈ 0.326 µM); IC50 [5]: 4 mg/L (≈ 10.4 µM); half-life [6]: 0.992 h; CLint scaled [7]: 1.41 L/h/kg; CLint scaled [8]: 1.26 L/h/kg; remaining at 1 h [9]: 47.4%; Activity [10]: Active; Activity [11]: Active |
| O=c1oc2cc(O)ccc2c2oc3ccc(O)c(CNC4CCCCC4)c3c12 | 0.25 mg/L (≈ 0.659 µM) |  |
| O=c1oc2cc(O)ccc2c2oc3ccc(O)c(CN4CCC(Br)CC4)c3c12 | 0.125 mg/L (≈ 0.281 µM) |  |
| COc1ccc2c(c1)oc(=O)c1c2oc2ccc(O)c(CN3CCC(F)(F)C3)c21 | > 64 mg/L |  |
| O=c1oc2cc(O)ccc2c2oc3ccc(O)c(CN4CCCC(F)C4)c3c12 (stereo unspecified) | 0.25 mg/L (≈ 0.652 µM) |  |
| O=c1oc2cc(O)ccc2c2oc3ccc(O)c(CN4CC[C@@H](F)C4)c3c12 | 0.5 mg/L (≈ 1.35 µM) |  |
| O=c1oc2cc(O)ccc2c2oc3ccc(O)c(CN4CCC(F)(F)C4)c3c12 | > 64 mg/L |  |
| CC(C)CCNCc1c(O)ccc2oc3c4ccc(O)cc4oc(=O)c3c12 | 0.125 mg/L (≈ 0.34 µM) |  |
| O=c1oc2cc(O)ccc2c2oc3ccc(O)c(CNC4CCCC4)c3c12 | 0.0039 mg/L (≈ 0.0107 µM) |  |
| COc1ccc2c(c1)oc(=O)c1c2oc2ccc(O)c(CN3CCC(C)(C)CC3)c21 | 8 mg/L (≈ 19.6 µM) |  |
| O=c1oc2cc(O)ccc2c2oc3ccc(O)c(CN4CCCCC4)c3c12 | 0.0039 mg/L (≈ 0.0107 µM) | ΔTm [2]: 7 °C; ΔTm [3]: 7.2 °C; half-life [6]: 2 h; CLint scaled [7]: 0.69 L/h/kg; CLint scaled [8]: 0.624 L/h/kg |
| CC[C@@H](CO)NCCN[C@@H](CC)CO [ETHAMBUTOL] | 1 mg/L (≈ 4.89 µM) |  |
| O=c1oc2cc(O)ccc2c2oc3ccc4c(c3c12)CN(CC1CC1)CO4 | 0.0625 mg/L (≈ 0.172 µM) | ΔTm [2]: 5.4 °C; ΔTm [3]: 5.3 °C |
| COc1ccc2c(c1)oc(=O)c1c2oc2ccc(O)c(CN3CCC(F)(F)CC3)c21 | > 64 mg/L |  |
| O=c1oc2cc(O)ccc2c2oc3ccc4c(c3c12)CN(C1CCCC1)CO4 | 0.0039 mg/L (≈ 0.0103 µM) | ΔTm [2]: 8.1 °C; ΔTm [3]: 8.4 °C; MIC90 [4]: 0.0078 mg/L (≈ 0.0207 µM); IC50 [5]: 0.125 mg/L (≈ 0.331 µM); selectivity ratio [12]: 32; half-life [6]: > 2.42 h; CLint scaled [7]: < 0.576 L/h/kg; remaining at 1 h [9]: 80.9%; Activity [10]: Active; Activity [11]: Active |
| O=c1oc2cc(O)ccc2c2oc3ccc(O)c(CN4CC[C@H](F)C4)c3c12 | 0.125 mg/L (≈ 0.338 µM) |  |
| O=C1CCCCN1Cc1c(O)ccc2oc3c4ccc(O)cc4oc(=O)c3c12 | > 64 mg/L |  |
